The source made the active and inactive calls. The rule behind the calls is not given here.
Legend:
P815 [1] = experiment: Cytotoxicity in mouse P815 cells expressing KIT D814Y mutant assessed as reduction in cell viability incubated for 48 hrs by MTT assay; format: functional, cell-based; conditions: P815, 48 h
Mus musculus [2] = experiment: Toxicity in C57BL/6 mouse assessed as induction of mouse mortality at 400 mg/kg, ip for 17 days measured on day 0; format: organism-based; conditions: in vivo, 408 h
Mus musculus [3] = experiment: Toxicity in C57BL/6 mouse assessed as body weight loss at 75 mg/kg, ip for 17 days; format: organism-based; conditions: in vivo, 408 h
P815 [4] = experiment: Toxicity in mouse P815 cells expressing KIT D814Y mutant assessed as reduction in total STAT3 protein level at 5 uM by Western blot method; format: cell-based; conditions: p815, 5 µM
[5] = system: Mast/stem cell growth factor receptor Kit (Mus musculus), P05532 [D814Y]; experiment: Inhibition of KIT D814Y mutant in mouse P815 cells assessed as reduction in STAT3 Tyr705 phosphorylation at 500 nM to 5 uM by Western blot method; format: cell-based
[6] = biological target: Platelet-derived growth factor receptor beta (Homo sapiens, UniProt P09619); experiment: Binding affinity to PDGFRbeta (unknown origin)
Mus musculus [7] = experiment: In-vivo suppression of PDGFR signalling in C57BL/6 mouse assessed as retardation of hair re-growth at 75 mg/kg, ip administered once daily for 17 days by photography; format: functional, organism-based
Mus musculus [8] = experiment: In-vivo suppression of KIT signalling in C57BL/6 mouse assessed as hair depigmentation at 75 mg/kg, ip administered once daily for 17 days by photography; format: functional, organism-based
P815 [9] = experiment: Induction of apoptosis in mouse P815 cells expressing KIT D814Y mutant assessed as reduction in pro-caspase-3 protein level at 500 nM to 5 uM by Western blot method; format: functional, cell-based

Chain of Mast/stem cell growth factor receptor Kit (Mus musculus), P05532 [D814Y] (P05532 with tags, fused parts or gaps D814Y): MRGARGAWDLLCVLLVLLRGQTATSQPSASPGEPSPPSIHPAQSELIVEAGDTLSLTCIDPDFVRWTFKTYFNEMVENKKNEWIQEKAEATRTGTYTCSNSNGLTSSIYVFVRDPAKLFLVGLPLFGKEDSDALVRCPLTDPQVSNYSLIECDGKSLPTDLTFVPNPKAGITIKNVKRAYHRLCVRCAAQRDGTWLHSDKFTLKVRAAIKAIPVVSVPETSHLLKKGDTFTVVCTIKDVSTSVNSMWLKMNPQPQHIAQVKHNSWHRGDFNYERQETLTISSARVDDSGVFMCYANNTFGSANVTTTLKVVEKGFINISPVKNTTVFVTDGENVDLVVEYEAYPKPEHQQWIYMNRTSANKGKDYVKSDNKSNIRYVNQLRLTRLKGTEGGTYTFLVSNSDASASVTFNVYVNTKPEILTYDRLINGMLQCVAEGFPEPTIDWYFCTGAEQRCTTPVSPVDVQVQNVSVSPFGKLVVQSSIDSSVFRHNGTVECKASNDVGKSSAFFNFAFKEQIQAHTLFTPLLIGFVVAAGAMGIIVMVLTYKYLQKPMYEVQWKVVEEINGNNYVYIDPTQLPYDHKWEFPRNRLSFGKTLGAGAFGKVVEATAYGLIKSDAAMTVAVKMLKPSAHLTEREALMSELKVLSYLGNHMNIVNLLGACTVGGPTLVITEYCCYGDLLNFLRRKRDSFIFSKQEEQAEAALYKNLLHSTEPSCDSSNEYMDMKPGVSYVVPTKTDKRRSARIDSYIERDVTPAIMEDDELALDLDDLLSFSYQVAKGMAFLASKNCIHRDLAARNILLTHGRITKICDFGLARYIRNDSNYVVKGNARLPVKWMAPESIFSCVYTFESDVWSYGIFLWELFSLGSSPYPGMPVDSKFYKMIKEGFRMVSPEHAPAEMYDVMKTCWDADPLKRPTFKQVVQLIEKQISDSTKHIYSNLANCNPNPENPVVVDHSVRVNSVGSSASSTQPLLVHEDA
Chain of Platelet-derived growth factor receptor beta (P09619 whole entry): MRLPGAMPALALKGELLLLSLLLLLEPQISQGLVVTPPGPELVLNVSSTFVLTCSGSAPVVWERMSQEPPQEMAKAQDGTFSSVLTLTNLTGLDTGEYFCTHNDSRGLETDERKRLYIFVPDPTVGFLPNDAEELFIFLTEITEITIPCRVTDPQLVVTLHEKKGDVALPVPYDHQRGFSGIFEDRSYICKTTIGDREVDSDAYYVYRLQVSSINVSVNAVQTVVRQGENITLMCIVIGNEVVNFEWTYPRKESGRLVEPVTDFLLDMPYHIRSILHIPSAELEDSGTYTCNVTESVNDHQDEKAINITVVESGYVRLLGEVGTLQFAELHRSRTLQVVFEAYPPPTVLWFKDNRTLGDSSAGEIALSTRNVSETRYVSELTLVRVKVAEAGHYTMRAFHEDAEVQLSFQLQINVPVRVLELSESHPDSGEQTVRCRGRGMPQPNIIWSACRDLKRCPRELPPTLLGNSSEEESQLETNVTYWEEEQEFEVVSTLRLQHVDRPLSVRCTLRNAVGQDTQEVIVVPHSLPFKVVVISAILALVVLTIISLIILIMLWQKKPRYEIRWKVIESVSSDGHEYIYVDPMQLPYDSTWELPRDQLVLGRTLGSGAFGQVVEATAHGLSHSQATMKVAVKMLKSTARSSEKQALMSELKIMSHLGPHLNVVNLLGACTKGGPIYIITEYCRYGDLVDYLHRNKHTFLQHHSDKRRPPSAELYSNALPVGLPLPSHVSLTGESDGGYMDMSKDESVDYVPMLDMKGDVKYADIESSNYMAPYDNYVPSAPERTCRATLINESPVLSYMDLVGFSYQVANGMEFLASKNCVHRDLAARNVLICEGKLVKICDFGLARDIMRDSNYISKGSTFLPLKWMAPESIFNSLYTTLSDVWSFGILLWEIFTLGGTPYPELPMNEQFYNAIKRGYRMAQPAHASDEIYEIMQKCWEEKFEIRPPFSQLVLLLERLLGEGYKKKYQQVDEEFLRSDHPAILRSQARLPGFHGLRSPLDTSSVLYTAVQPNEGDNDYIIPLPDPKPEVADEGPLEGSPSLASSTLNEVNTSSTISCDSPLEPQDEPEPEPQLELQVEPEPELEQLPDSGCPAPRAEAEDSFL

COc1cc2c(N3CCN(C(=O)Nc4ccc(OC(C)C)cc4)CC3)ncnc2cc1OCCCN1CCCCC1 [TANDUTINIB]
IC50 (P815 [1]): 600 nM

COCCOc1cc2ncnc(N3CCN(c4ncc(Cc5ccccc5)cn4)CC3)c2cc1OCCOC
Activity (Mus musculus [2]): Toxic
Activity (Mus musculus [3]): 10%
IC50 (P815 [1]): 182 nM
Activity (P815 [4]): Toxic
inhibition [5]: Active
Kd [6]: 8 nM
Activity (Mus musculus [7]): Active
Activity (Mus musculus [8]): inactive
Activity (P815 [9]): Dose-dependent effect
